Laboratory results taken from ChEMBL document CHEMBL1201862, “PubChem BioAssay data set” (2004).
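Test compounds were applied to cells in 96-well plates for 48 hours at 5 doses. At the GI50, growth is halved.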 Activity calls are given as the source filed them. Rule as the data show it: active = GI50 up to about 1.1 µM and inactive = higher.

Key:
Experiment in all cases: NCI-60 cell line screen, 48 h
SW-620 = tested on: SW-620
SF-295 = tested on: SF-295
M14 = tested on: M14
HT-29 = tested on: HT-29
HCT-116 = tested on: HCT-116
DU-145 = tested on: DU-145
ACHN = tested on: ACHN
A549 = tested on: A549
HOP-92 = tested on: HOP-92
IGROV-1 = tested on: IGROV-1
OVCAR-8 = tested on: OVCAR-8
NCI-H460 = tested on: NCI-H460
CAKI-1 = tested on: CAKI-1
UACC-257 = tested on: UACC-257
HL-60 = tested on: HL-60
SNB-19 = tested on: SNB-19
SN12C = tested on: SN12C
RXF 393 = tested on: RXF 393
SNB-75 = tested on: SNB-75
OVCAR-4 = tested on: OVCAR-4

Measured: GI50

Cc1ccc(-c2cs/c(=N\c3ccccc3)n2NC(=O)c2ccncc2)cc1
inactive: SW-620 35.8 µM | SF-295 27.6 µM | M14 33 µM | HT-29 21 µM | HCT-116 31.8 µM | DU-145 56.2 µM | ACHN 35.3 µM | A549 31.8 µM | HOP-92 88.5 µM | IGROV-1 40.3 µM | OVCAR-8 25.8 µM | NCI-H460 36.3 µM | CAKI-1 26.4 µM | UACC-257 37.3 µM | HL-60 19.4 µM | SNB-19 46.8 µM | SN12C 45.2 µM | RXF 393 35.2 µM | SNB-75 50.6 µM | OVCAR-4 36.9 µM

CCOc1ccccc1-c1nc2c(s1)C(=O)c1ccccc1C2=O
inactive: SW-620 8 µM | SF-295 12.6 µM | M14 15.7 µM | HCT-116 15.2 µM | DU-145 19.4 µM | ACHN 14.9 µM | A549 17.1 µM | HOP-92 12 µM | IGROV-1 12.2 µM | NCI-H460 18.7 µM | CAKI-1 12.2 µM | UACC-257 12.9 µM | HL-60 1.92 µM | SNB-19 25.8 µM | SN12C 18.4 µM | RXF 393 16 µM | SNB-75 11.4 µM | OVCAR-4 9.68 µM

CSc1nc2c(c(=O)[nH]1)N=C(c1ccccc1)CC(c1ccccc1)N2 (stereo not given)
inactive: SW-620 50.8 µM | SF-295 34.7 µM | M14 32.2 µM | HT-29 30.4 µM | HCT-116 29.6 µM | DU-145 30.1 µM | ACHN 25.6 µM | A549 32.1 µM | HOP-92 41.5 µM | IGROV-1 23.4 µM | OVCAR-8 28 µM | NCI-H460 13.4 µM | CAKI-1 32.1 µM | UACC-257 56.5 µM | HL-60 22.9 µM | SNB-19 39.1 µM | SN12C 21.2 µM | RXF 393 34.7 µM | SNB-75 11.7 µM | OVCAR-4 30.3 µM

O=C(/C=C\c1ccccc1-c1ccccc1)c1ccccc1
inactive: SW-620 > 100 µM | SF-295 > 100 µM | M14 > 100 µM | HT-29 > 100 µM | HCT-116 66.5 µM | DU-145 > 100 µM | ACHN > 100 µM | A549 3.93 µM | HOP-92 > 100 µM | IGROV-1 > 100 µM | OVCAR-8 > 100 µM | NCI-H460 > 100 µM | CAKI-1 > 100 µM | UACC-257 > 100 µM | HL-60 60.4 µM | SN12C > 100 µM | RXF 393 45.5 µM | SNB-75 61.8 µM | OVCAR-4 11.1 µM

CCSC1=N/C(=C/c2ccccc2O)C(=O)N1
inactive: SW-620 > 100 µM | SF-295 91 µM | M14 > 100 µM | HT-29 > 100 µM | HCT-116 > 100 µM | DU-145 > 100 µM | ACHN 39.2 µM | A549 > 100 µM | HOP-92 89.1 µM | IGROV-1 87.3 µM | OVCAR-8 41.9 µM | NCI-H460 > 100 µM | CAKI-1 > 100 µM | UACC-257 > 100 µM | HL-60 > 100 µM | SNB-19 > 100 µM | SN12C 67.1 µM | RXF 393 26.4 µM | SNB-75 25.1 µM

c1csc(-c2sc(-c3ccsc3)cc2Cc2ccsc2)c1
inactive: SW-620 > 10 µM | SF-295 > 10 µM | M14 > 10 µM | HT-29 > 10 µM | DU-145 > 10 µM | A549 > 10 µM | HOP-92 > 10 µM | IGROV-1 > 10 µM | OVCAR-8 > 10 µM | CAKI-1 > 10 µM | UACC-257 > 10 µM | HL-60 > 10 µM | SN12C > 10 µM | RXF 393 > 10 µM | SNB-75 > 10 µM | OVCAR-4 > 10 µM

N#CC1=C(N)N2C(=O)/C(=C/c3ccccc3O)N=C2S1
inactive: SW-620 > 100 µM | SF-295 > 100 µM | M14 49.9 µM | HT-29 37.7 µM | HCT-116 68.1 µM | DU-145 > 100 µM | ACHN > 100 µM | A549 > 100 µM | HOP-92 > 100 µM | IGROV-1 29.8 µM | OVCAR-8 > 100 µM | CAKI-1 51.5 µM | UACC-257 > 100 µM | HL-60 20.8 µM | SNB-19 > 100 µM | SN12C > 100 µM | RXF 393 93.3 µM | SNB-75 32.9 µM | OVCAR-4 44.5 µM

O=C1CC2(CCN(CC3COc4ccccc4O3)CC2)C(=O)N1N1CCCCCC1 (stereo not given)
inactive: SF-295 71.1 µM | M14 69.3 µM | HT-29 21.4 µM | HCT-116 52.6 µM | DU-145 32.7 µM | ACHN 73.5 µM | A549 > 100 µM | HOP-92 87.3 µM | IGROV-1 > 100 µM | OVCAR-8 64.6 µM | CAKI-1 > 100 µM | UACC-257 13.9 µM | HL-60 17.6 µM | SNB-19 > 100 µM | SN12C > 100 µM | RXF 393 64.6 µM | SNB-75 76.4 µM | OVCAR-4 33.6 µM

CSC(=S)Nc1cc(C)ccn1
inactive: SW-620 > 100 µM | SF-295 76.7 µM | M14 > 100 µM | HT-29 > 100 µM | HCT-116 70.5 µM | DU-145 > 100 µM | ACHN 70 µM | A549 > 100 µM | HOP-92 79.3 µM | IGROV-1 20.8 µM | OVCAR-8 > 100 µM | NCI-H460 85.9 µM | CAKI-1 > 100 µM | UACC-257 > 100 µM | HL-60 > 100 µM | SNB-19 > 100 µM | SN12C 57.7 µM | RXF 393 > 100 µM | SNB-75 29 µM | OVCAR-4 39.1 µM

CCOc1ccc2nc3cc(/N=N/c4ccc(N)nc4N)ccc3c(N)c2c1
inactive: SW-620 2.51 µM | SF-295 22.6 µM | M14 20 µM | HT-29 3.5 µM | HCT-116 1.66 µM | DU-145 6.65 µM | ACHN 18.2 µM | A549 15 µM | HOP-92 9.06 µM | IGROV-1 23.6 µM | OVCAR-8 2.73 µM | NCI-H460 21.3 µM | CAKI-1 36.4 µM | UACC-257 19.1 µM | HL-60 1.95 µM | SNB-19 1.67 µM | SN12C 2.17 µM | RXF 393 2.19 µM | SNB-75 1.41 µM | OVCAR-4 6.92 µM

CC(C)C1=CCC2C(=C1)CCC1C(C)(C(=O)O)CCCC21C (stereo not given)
inactive: SW-620 > 100 µM | SF-295 97.7 µM | M14 > 100 µM | HT-29 78.5 µM | HCT-116 > 100 µM | DU-145 > 100 µM | ACHN 94.8 µM | A549 > 100 µM | HOP-92 > 100 µM | IGROV-1 > 100 µM | OVCAR-8 > 100 µM | CAKI-1 > 100 µM | UACC-257 > 100 µM | HL-60 14.2 µM | SN12C > 100 µM | RXF 393 > 100 µM | SNB-75 > 100 µM | OVCAR-4 56.8 µM

COc1ccc(/C=C2\N/C(=N/N)N=C2Cl)cc1
inactive: SW-620 > 100 µM | SF-295 > 100 µM | M14 > 100 µM | HT-29 > 100 µM | HCT-116 > 100 µM | DU-145 > 100 µM | ACHN > 100 µM | A549 > 100 µM | HOP-92 > 100 µM | IGROV-1 > 100 µM | OVCAR-8 > 100 µM | CAKI-1 > 100 µM | UACC-257 > 100 µM | HL-60 > 100 µM | SNB-19 > 100 µM | SN12C > 100 µM | RXF 393 > 100 µM | SNB-75 > 100 µM | OVCAR-4 > 100 µM

O=[N+]([O-])C(=C(NCc1ccccc1)NCc1ccccc1)C(Cl)=C(Cl)Cl
inactive: SW-620 36.9 µM | SF-295 24.5 µM | M14 26 µM | HT-29 39.5 µM | HCT-116 30 µM | DU-145 69.3 µM | ACHN 21.6 µM | A549 42.7 µM | HOP-92 37.3 µM | IGROV-1 34 µM | OVCAR-8 36.6 µM | NCI-H460 37.5 µM | CAKI-1 10.7 µM | UACC-257 38.1 µM | HL-60 20.2 µM | SNB-19 28.2 µM | SN12C 34.9 µM | RXF 393 28 µM | SNB-75 2.1 µM | OVCAR-4 31.7 µM

CC(=O)OC12CC[N+]3(C)CCCCC3C1=Nc1ccccc12 (stereo not given)
inactive: SW-620 > 100 µM | SF-295 > 100 µM | M14 > 100 µM | HT-29 63.8 µM | HCT-116 > 100 µM | DU-145 > 100 µM | ACHN > 100 µM | A549 40.5 µM | HOP-92 > 100 µM | IGROV-1 > 100 µM | OVCAR-8 > 100 µM | NCI-H460 > 100 µM | CAKI-1 > 100 µM | UACC-257 > 100 µM | HL-60 > 100 µM | SNB-19 > 100 µM | SN12C > 100 µM | RXF 393 > 100 µM | SNB-75 > 100 µM | OVCAR-4 > 100 µM

CCCCCCCCCCCCCCCCOCC(Cl)CP(=O)(O)OP(=O)(O)OCC1OC(n2cnc3c(N)ncnc32)C(O)C1O (stereo not given)
inactive: SW-620 > 100 µM | M14 > 100 µM | HT-29 > 100 µM | HCT-116 67 µM | DU-145 > 100 µM | ACHN > 100 µM | A549 > 100 µM | HOP-92 > 100 µM | IGROV-1 > 100 µM | OVCAR-8 > 100 µM | NCI-H460 47.5 µM | CAKI-1 > 100 µM | UACC-257 > 100 µM | HL-60 > 100 µM | SNB-19 60.3 µM | SN12C > 100 µM | RXF 393 61.8 µM | SNB-75 > 100 µM | OVCAR-4 > 100 µM
